Test results taken from patent publication US6011032A, “Heterocyclic compounds for treating myocardial ischemia” (Pierre Fabre Medicament, priority 1995, dated 2000).
Counter-ions that a name gives are not always drawn.

Experiments:
anaesthetized rabbits = assay: Reinfusion ischemia in anaesthetized rabbits (iv); assay type: in vivo, rabbit; settings: 0.16 mg/kg iv
Source text: (§1) The compounds of the present invention of formula I and the therapeutically acceptable salts thereof have advantageous pharmacological properties. These derivatives are active on cardiomyocytes by inhibiting the diastolic contraction induced by veratrine in isolated rat left atrium. These compounds are also active in vivo during reinfusion ischemia in anaesthetized rabbits: they inhibit the electrical disturbances in the ECG caused by the reinfusion ischemia without any appreciable hemodynamic effect and are not cardiac depressors. Such compounds are useful for preventive or curative purposes in the treatment of coronaropathies and cardiac and cerebral ischemia in all their forms and in the treatment of atherosclerosis.
Compounds of the present invention are also active via the venous route in the test of reinfusion ischemia in anaesthetized rabbits according to the method of Verscheure et al. (Fundam Clin Pharmacol (1993) 7, 385). The results for the compounds of Examples 1, 2, 11 and 15 are given in the table below by way of non-limiting example: […]

isolated rat left atrium = assay: Inhibition of contraction of isolated rat left atrium by veratrine; assay type: cell-based
Source text: as §1
Inhibition of contraction of isolated rat left atrium by veratrine was carried out according to the technique of Le Grand et al. (Naunyn--Schmiedeberg's Arch Phazmacol (1993) 348 pp. 184-190). The results are given in the table below, in which the IC50 values are expressed in micromoles for certain compounds, by way of non-limiting examples: […]

Compound	% arterial pressure variation (anaesthetized rabbits)	% heart rate variation (anaesthetized rabbits)	% inhibition ST segment (anaesthetized rabbits)	Number of arrythmias under reinfusion (anaesthetized rabbits)	IC50 (isolated rat left atrium)
CC(C)NCC(O)COc1ccc(CC(N)=O)cc1 (centres unmarked) [Atenolol, reference compound]	-9%	-13%	64%	4/6	–
COc1ccc([C@@H]2Sc3ccccc3N(CCN(C)C)C(=O)[C@@H]2OC(C)=O)cc1 [Diltiazem, reference compound]	-27%	-5%	61%	0/6	–
CN(C1=Nc2ccccc2CS1)C1CCN(CCCCOc2ccc(F)cc2)CC1.O=C(O)/C=C\C(=O)O [Example 1, N-Methyl-N-[1-[4-(4-fluorophenoxy)butyl]piperid-4-yl]-4H-3,1-benzothiazin-2-amine hydrogen maleate]	+6%	+3%	76%	3/5	150 nM
CN(C1=Nc2ccccc2CS1)C1CCN(CCCOc2ccc(F)cc2)CC1.O=C(O)/C=C\C(=O)O [Example 2, N-Methyl-N-[1-[3-(4-fluorophenoxy)propyl]piperid-4-yl]-4H-3,1-benzothiazin-2-amine hydrogen maleate]	+4%	-3%	76%	1/5	–
CN(C1=Nc2ccccc2CS1)C1CCN(CCCCOc2ccc(F)c(F)c2)CC1 [Example 11, N-Methyl-N-[1-[4-(3,4-difluorophenoxy)butyl]piperid-4-yl]-4H-3,1-benzothiazin-2-armine hydrogen maleate]	+3%	-1%	71%	1/5	–
CN(C1=Nc2ccccc2CS1)C1CCN(CC(O)COc2ccc(F)cc2)CC1.Cl.Cl (centres unmarked) [Example 15, N-Methyl-N-[1-[2-hydroxy-3-(4-fluorophenoxy)propyl]-piperid-4-yl]-4H-3,1-benzothiazin-2-amine dihydrochloride]	+5%	0%	90%	1/5	320 nM
CN(c1nc2ccccc2s1)C1CCN(CCCCOc2ccc(F)cc2)CC1 [R 56865, N-(1-(4-(4-fluorophenoxy)butyl)piperid-4-yl)-N-methyl-2-benzothiazolamine, reference compound]	–	–	–	–	250 nM
CN(c1nc2ccccc2s1)C1CCN(CC(O)COc2ccc(F)cc2)CC1 (centres unmarked) [Sabeluzole, N-(1-(2-hydroxy-3-(4-fluorophenoxy)propyl)piperid-4-yl)-N-methyl-2-benzothiazolamine, reference compound]	2%	-5%	84%	1/5	5100 nM
